Assay results reported in patent US20180099931A1 (AbbVie S.à.r.l., priority 2016, published 2018).
Read-outs that look alike come from different tables or passages of the source.

Target: T1, F508delCFTR (Homo sapiens, UniProt P13569, DEL508-508)
T1 construct: expressed in transfected cells; host or cells: CFBE41o- human lung-derived epithelial cells (CFBE4lo-F508delCFTR-HRP), doxycycline-inducible
Assay: Cell Surface Expression-Horse Radish Peroxidase (CSE-HRP) Assay;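 for Maximum % activity (with co-corrector): co-corrector and positive control are both the same reference corrector at 2 µM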;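 for Maximum % activity (without co-corrector): percent of the 2 µM on-plate positive control corrector response above DMSO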
Assay type: cell-based
Details: for Maximum % activity (with co-corrector) / Emax: maximum at any tested concentration, normalized to on-plate positive control; for Emax: read-out: Maximum % activity (without co-corrector)

[1] = CSE-HRP, test compound without co-corrector, read-out: EC50 (without co-corrector)
[2] = CSE-HRP, with co-corrector (2 μM of 3-[(2R,4R)-4-({[1-(2,2-difluoro-1,3-benzodioxol-5-yl)cyclopropyl]carbonyl}amino)-7-methoxy-3,4-dihydro-2H-chromen-2-yl]benzoic acid), read-out: EC50 (with co-corrector)
[3] = CSE-HRP, with co-corrector (2 μM)
[4] = test compound without co-corrector
[5] = test compound without co-corrector, read-out: EC50 (without co-corrector)
[6] = with co-corrector (2 μM of 3-[(2R,4R)-4-({[1-(2,2-difluoro-1,3-benzodioxol-5-yl)cyclopropyl]carbonyl}amino)-7-methoxy-3,4-dihydro-2H-chromen-2-yl]benzoic acid)
[7] = with co-corrector (2 μM of 3-[(2R,4R)-4-({[1-(2,2-difluoro-1,3-benzodioxol-5-yl)cyclopropyl]carbonyl}amino)-7-methoxy-3,4-dihydro-2H-chromen-2-yl]benzoic acid), read-out: EC50 (with co-corrector)

T1 sequence (P13569 with tags, fused parts or gaps DEL508-508): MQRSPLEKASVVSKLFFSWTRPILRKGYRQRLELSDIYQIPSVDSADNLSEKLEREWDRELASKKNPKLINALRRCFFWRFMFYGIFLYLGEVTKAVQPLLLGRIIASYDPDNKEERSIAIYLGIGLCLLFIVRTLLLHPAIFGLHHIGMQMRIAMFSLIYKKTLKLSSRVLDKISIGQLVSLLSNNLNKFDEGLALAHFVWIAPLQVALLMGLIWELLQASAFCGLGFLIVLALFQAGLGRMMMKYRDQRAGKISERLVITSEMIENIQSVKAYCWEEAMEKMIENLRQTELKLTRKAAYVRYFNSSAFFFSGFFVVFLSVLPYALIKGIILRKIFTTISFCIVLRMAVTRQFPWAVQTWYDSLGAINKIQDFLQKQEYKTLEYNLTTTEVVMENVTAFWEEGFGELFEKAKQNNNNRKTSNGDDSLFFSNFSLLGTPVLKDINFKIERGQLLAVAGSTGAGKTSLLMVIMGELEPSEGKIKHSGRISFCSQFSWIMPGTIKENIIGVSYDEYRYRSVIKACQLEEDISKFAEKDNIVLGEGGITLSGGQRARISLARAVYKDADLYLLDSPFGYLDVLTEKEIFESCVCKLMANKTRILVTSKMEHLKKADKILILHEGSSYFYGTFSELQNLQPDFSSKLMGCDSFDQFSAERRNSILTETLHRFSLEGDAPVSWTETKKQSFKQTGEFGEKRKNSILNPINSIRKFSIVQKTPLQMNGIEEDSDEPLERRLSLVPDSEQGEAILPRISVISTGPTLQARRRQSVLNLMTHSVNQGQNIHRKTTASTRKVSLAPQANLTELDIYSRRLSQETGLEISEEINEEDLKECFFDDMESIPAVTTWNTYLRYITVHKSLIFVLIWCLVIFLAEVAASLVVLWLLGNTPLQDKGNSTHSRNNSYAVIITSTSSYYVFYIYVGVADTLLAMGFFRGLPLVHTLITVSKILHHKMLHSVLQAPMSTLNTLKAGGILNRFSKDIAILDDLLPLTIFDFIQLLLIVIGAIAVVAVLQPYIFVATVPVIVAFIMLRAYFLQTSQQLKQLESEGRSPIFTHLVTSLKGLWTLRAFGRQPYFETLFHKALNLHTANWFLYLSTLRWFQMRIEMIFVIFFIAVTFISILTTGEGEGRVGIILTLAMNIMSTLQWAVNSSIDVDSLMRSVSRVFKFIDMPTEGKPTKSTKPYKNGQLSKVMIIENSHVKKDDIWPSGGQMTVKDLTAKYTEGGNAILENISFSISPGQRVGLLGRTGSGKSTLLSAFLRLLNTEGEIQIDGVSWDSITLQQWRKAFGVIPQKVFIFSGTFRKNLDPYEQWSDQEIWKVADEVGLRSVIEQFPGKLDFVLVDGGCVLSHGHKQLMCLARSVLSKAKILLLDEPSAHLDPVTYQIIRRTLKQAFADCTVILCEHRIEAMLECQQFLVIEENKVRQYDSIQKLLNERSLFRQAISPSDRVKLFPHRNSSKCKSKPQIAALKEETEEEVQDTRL

## COc1ccc(C(C)(C)C)cc1CN[C@H]1[C@H](C(C)(C)C)[C@@H](C(=O)O)N(C(=O)C2CC(C)C2)[C@H]1c1ccccc1 (stereo partly drawn) [II-306]
[1]
  EC50: 1000 to 10000 nM
[2]
  EC50: 1000 to 10000 nM
[3]
  Maximum % activity (with co-corrector): +++ (≥350)
CSE-HRP, without co-corrector
  Emax: > 200%

## COc1ccc(C(C)(C)C)cc1CN[C@H]1[C@H](C(C)(C)C)[C@@H](C(=O)O)N(C(=O)C2CC2c2ccc(F)cc2)[C@H]1c1ccccc1 (stereo partly drawn) [II-307]
[1]
  EC50: < 1000 nM
[2]
  EC50: < 1000 nM
[3]
  Maximum % activity (with co-corrector): +++ (≥350)
CSE-HRP, without co-corrector
  Emax: > 200%

## COc1ccc(C(C)(C)C)cc1CN[C@H]1[C@H](C(C)(C)C)[C@@H](C(=O)O)N(C(=O)[C@H](C)OC)[C@H]1c1ccccc1 [II-308]
[1]
  EC50: 1000 to 10000 nM
[2]
  EC50: 1000 to 10000 nM
[3]
  Maximum % activity (with co-corrector): +++ (≥350)
CSE-HRP, without co-corrector
  Emax: 100 to 200%

## COc1ccc(C(C)(C)C)cc1CN[C@H]1[C@H](C(C)(C)C)[C@@H](C(=O)O)N(C(=O)C2CC2(C)C)[C@H]1c1ccccc1 (stereo partly drawn) [II-309]
[1]
  EC50: 1000 to 10000 nM
[2]
  EC50: 1000 to 10000 nM
[3]
  Maximum % activity (with co-corrector): +++ (≥350)
CSE-HRP, without co-corrector
  Emax: > 200%

## COc1ccc(C(C)(C)C)cc1CN[C@H]1[C@H](C(C)(C)C)[C@@H](C(=O)O)N(C(=O)C(C)Oc2ccc(F)cc2)[C@H]1c1ccccc1 (stereo partly drawn) [II-310]
[1]
  EC50: 1000 to 10000 nM
[2]
  EC50: < 1000 nM
[3]
  Maximum % activity (with co-corrector): +++ (≥350)
CSE-HRP, without co-corrector
  Emax: > 200%

## COc1ccc(C(C)(C)C)cc1CN[C@H]1[C@H](C(C)(C)C)[C@@H](C(=O)O)N(C(=O)[C@@H](C)OC)[C@H]1c1ccccc1 [II-311]
[1]
  EC50: 1000 to 10000 nM
[2]
  EC50: 1000 to 10000 nM
[3]
  Maximum % activity (with co-corrector): +++ (≥350)
CSE-HRP, without co-corrector
  Emax: > 200%

## COc1ccc(C(C)(C)C)cc1CN[C@H]1[C@H](C(C)(C)C)[C@@H](C(=O)O)N(C(=O)C(C)Oc2ccccc2Cl)[C@H]1c1ccccc1 (stereo partly drawn) [II-312]
[1]
  EC50: < 1000 nM
[2]
  EC50: < 1000 nM
[3]
  Maximum % activity (with co-corrector): +++ (≥350)
CSE-HRP, without co-corrector
  Emax: 100 to 200%

## COc1ccc(C(C)(C)C)cc1CN[C@H]1[C@H](C(C)(C)C)[C@@H](C(=O)O)N(C(=O)C2CCC2)[C@H]1c1ccccc1 [II-313]
[1]
  EC50: 1000 to 10000 nM
[2]
  EC50: 1000 to 10000 nM
[3]
  Maximum % activity (with co-corrector): +++ (≥350)
CSE-HRP, without co-corrector
  Emax: > 200%

## COc1ccc(C(C)(C)C)cc1CN[C@H]1[C@H](C(C)(C)C)[C@@H](C(=O)O)N(C(=O)C2Cc3ccccc3S2)[C@H]1c1ccccc1 (stereo partly drawn) [II-314]
[1]
  EC50: 1000 to 10000 nM
[2]
  EC50: < 1000 nM
[3]
  Maximum % activity (with co-corrector): +++ (≥350)
CSE-HRP, without co-corrector
  Emax: > 200%

## COc1ccc(C(C)(C)C)cc1CN[C@H]1[C@H](C(C)(C)C)[C@@H](C(=O)O)N(C(=O)[C@H](C)c2ccccc2)[C@H]1c1ccccc1 [II-315]
[1]
  EC50: < 1000 nM
[2]
  EC50: < 1000 nM
[3]
  Maximum % activity (with co-corrector): +++ (≥350)
CSE-HRP, without co-corrector
  Emax: > 200%

## COc1ccc(C(C)(C)C)cc1CN[C@H]1[C@H](C(C)(C)C)[C@@H](C(=O)O)N(C(=O)C2CCN(C(=O)C3CC3)CC2)[C@H]1c1ccccc1 [II-316]
[4]
  Emax: > 200%
[5]
  EC50: 1000 to 10000 nM
[6]
  Maximum % activity (with co-corrector): +++ (≥350)
[7]
  EC50: 1000 to 10000 nM

## COc1ccc(C(C)(C)C)cc1CN[C@H]1[C@H](C(C)(C)C)[C@@H](C(=O)O)N(C(=O)C2CCc3cccc(OC)c3C2)[C@H]1c1ccccc1 (stereo partly drawn) [II-317]
[4]
  Emax: > 200%
[5]
  EC50: < 1000 nM
[6]
  Maximum % activity (with co-corrector): +++ (≥350)
[7]
  EC50: < 1000 nM

## COc1ccc(C(C)(C)C)cc1CN[C@H]1[C@H](C(C)(C)C)[C@@H](C(=O)O)N(C(=O)C2CCCCO2)[C@H]1c1ccccc1 (stereo partly drawn) [II-318]
[4]
  Emax: > 200%
[5]
  EC50: 1000 to 10000 nM
[6]
  Maximum % activity (with co-corrector): +++ (≥350)
[7]
  EC50: 1000 to 10000 nM

## COc1ccc(C(C)(C)C)cc1CN[C@H]1[C@H](C(C)(C)C)[C@@H](C(=O)O)N(C(=O)[C@H](C)Oc2ccccc2)[C@H]1c1ccccc1 [II-319]
[4]
  Emax: > 200%
[5]
  EC50: 1000 to 10000 nM
[6]
  Maximum % activity (with co-corrector): +++ (≥350)
[7]
  EC50: < 1000 nM

## COc1ccc(C(C)(C)C)cc1CN[C@H]1[C@H](C(C)(C)C)[C@@H](C(=O)O)N(C(=O)C2CCc3cc(F)ccc3O2)[C@H]1c1ccccc1 (stereo partly drawn) [II-320]
[4]
  Emax: > 200%
[5]
  EC50: 1000 to 10000 nM
[6]
  Maximum % activity (with co-corrector): +++ (≥350)
[7]
  EC50: < 1000 nM
